Structures are written as SMILES.

These results are taken from patent publication US20230241072A1, “ANTHRACYCLINE DERIVATIVES” (ALMAC DISCOVERY LIMITED, priority 2019, published 2023).

Data set [1] has as its system PA-1. Nature of the data set: Free payload potency in cell lines (96 h): PA-1. As to conditions: PA-1 (Ovarian). In kind it is cell-based, human. The method, then: (§1) The potency of the EDA-PNU159682 derivative (FIG. 1) was tested in a variety of cell lines.
The test system of data set [2] is PA-1 32.35 (Ovarian ROR1 −/−). Nature of the data set: Free payload potency in cell lines (96 h): PA-1 32.35. In kind it is cell-based, human. The protocol:
as §1

Data set [3] has as its system PC-9. Nature of the data set: Free payload potency in cell lines (96 h): PC-9. As to conditions: PC-9 (Lung). The format is cell-based. The method, then:
as §1

The subject of data set [4] is NCI-N87. Nature of the data set: Free payload potency in cell lines (96 h): NCI-N87. To be noted: NCI-N87 (Stomach). In kind it is cell-based. The protocol:
as §1

In data set [5] the test system is DU145. Nature of the data set: Free payload potency in cell lines (96 h): DU145. The format is cell-based. To be noted: DU145 (Prostate). The method, then: as §1
For data set [6], the system named is MDA-231. Nature of the data set: Free payload potency in cell lines (96 h): MDA-231. In kind it is cell-based. As to conditions: MDA-231 (Breast). The protocol:
as §1

Data set [7] concerns MHH-ES1. Nature of the data set: Free payload potency in cell lines (96 h): MHH-ES1. In kind it is cell-based, human. As to conditions: MHH-ES1 (Ewings sarcoma). The method, then:
as §1

In data set [8] the test system is A427. Nature of the data set: Free payload potency in cell lines (96 h): A427. The format is cell-based. To be noted: A427 (Lung). The method, then: as §1
Data set [9] concerns Panc-1. Nature of the data set: Free payload potency in cell lines (96 h): Panc-1. As to conditions: Panc-1 (Pancreatic). The format is cell-based. The method, then: as §1
Data set [10] deals with A549. Nature of the data set: Free payload potency in cell lines (96 h): A549. The format is cell-based, human. As to conditions: A549 (Lung). The method, then: as §1
The test system of data set [11] is ACHN. Nature of the data set: Free payload potency in cell lines (96 h): ACHN. The format is cell-based. To be noted: ACHN (Kidney). The method, then: as §1
Data set [12] concerns Hs746T. Nature of the data set: Free payload potency in cell lines (96 h): Hs746T. In kind it is cell-based. To be noted: Hs746T (Stomach). The protocol: as §1
Data set [13] concerns Mino. Nature of the data set: Free payload potency in cell lines (96 h): Mino. In kind it is cell-based. To be noted: Mino (MCL). The protocol:
as §1

In data set [14] the test system is 697. Nature of the data set: Free payload potency in cell lines (96 h): 697. In kind it is cell-based, human. As to conditions: 697 (BCL). The protocol: as §1
Data set [15] relates to JeKo-1. Nature of the data set: Free payload potency in cell lines (96 h): JeKo-1. In kind it is cell-based. As to conditions: JeKo-1 (MCL). The protocol: as §1
Data set [16] has as its system MDA-468. Nature of the data set: Free payload potency in cell lines (96 h): MDA-468. The format is cell-based. As to conditions: MDA-468 (Breast). The method, then:
as §1

The subject of data set [17] is PA-1 31-J-06 (Ovarian ROR1 −/−). Nature of the data set: Free payload potency in cell lines (96 h): PA-1 31-J-06. The format is cell-based, human. The protocol:
as §1

Data set [18] relates to Kasumi-2. Nature of the data set: Free payload potency in cell lines (96 h): Kasumi-2. As to conditions: Kasumi-2 (BCL). The format is cell-based, human. The protocol: as §1
A short description of data set [19]: Mouse plasma half-life of free payloads (parallel study). The format is in vitro ADME. As to conditions: free payload. The protocol: For both the vc-PAB-DMAE-PNU and vc-PAB-EDA-PNU conjugates liberation of some free payload could be detected as a function of time, with 217 nM PNU159682 and 114 nM of EDA-PNU159682 derivative detected after 120 h respectively. Note, in a parallel study, we calculated the mouse plasma half-lives of the free PNU159682 and EDA-PNU159682 derivatives to be 33 h and 116 h respectively.

Data set [20] concerns A2780. To be noted: ovarian cell line A2780; cited from earlier work.
Data set [21] has as its system MCF7. As to conditions: breast cancer cell line MCF7; cited from earlier work.

Regarding `COc1cccc2c1C(=O)c1c(O)c3c(c(O)c1C2=O)C[C@@](O)(C(=O)CO)C[C@@H]3O[C@H]1C[C@H]2[C@H](O[C@@H]3[C@@H](OC)OCCN32)[C@H](C)O1` [PNU159682], the IC50 in data set [1] turned out to be 0.0044 nM; in data set [2], 0.0014 nM; in [3] it was 0.047 nM; in data set [4] it was 0.122 nM; in data set [5] it was 0.022 nM; in [6] it was 0.011 nM. Further, the IC50 was 0.0034 nM in [7]; 0.0098 nM in data set [8]; 0.026 nM in [9]; 0.013 nM in [10]; 0.0097 nM in [11]; 0.049 nM in data set [12]. Moreover, the IC50 in data set [13] turned out to be 0.037 nM; in data set [14], 0.008 nM; in data set [15] it was 0.044 nM; in [16], 0.021 nM; in data set [17] it was 0.0022 nM; in data set [18], 0.0024 nM. Moreover, the mouse plasma half-life in data set [19] stood at 33 h. In addition, the “potency for in vitro cell killing” value in [20] and in [21] was “pico- to femtomolar range” each time.
